# Values quoted from earlier work, collected in patent US5441941A, “1,2-dihydroellipticines with activity against CNS specific cancer” (The United States of America as represented by the …, priority 1993, dated 1995).
# Where two headings read alike, the source gives them in different places.
# How the values were obtained:
# [1] = system: mouse lymphoid leukemia L-1210; conditions: cited from earlier work
# Sarcoma 180 (solid) = conditions: in vivo; cited from earlier work
# P388 = conditions: cited from earlier work
# B16 melanoma = conditions: cited from earlier work
# colon carcinoma = conditions: cited from earlier work
# M5076 reticulosarcoma = conditions: cited from earlier work
# SF126 = conditions: human glioma line; cited from earlier work
# SF375 = conditions: human glioma line; cited from earlier work
# SF407 = conditions: human glioma line; cited from earlier work
# mammary cancer = conditions: in vivo; cited from earlier work
smiles,measurement,setting,value
"Cc1c2ccncc2c(C)c2c1[nH]c1ccccc12 [ellipticine, 5, 11-dimethyl-6H-pyrido [4,3-b] carbazole]",antitumor activity,[1]; mouse L-1210 leukemia,effective against the tumor of animals
same,effect against tumor of animals,Sarcoma 180 (solid),effective against the tumor of animals
"CCN(CC)CC[n+]1ccc2c(C)c3[nH]c4ccc(O)cc4c3c(C)c2c1 [datelliptium, 2-[(2-diethylamino)ethyl]-9-hydroxyellipticinium]",antitumor activity,"[1]; mouse, in vivo",in vivo activity
same,in vivo activity,P388,in vivo activity
same,in vivo activity,B16 melanoma,in vivo activity
same,in vivo activity,colon carcinoma,in vivo activity
same,in vivo activity,M5076 reticulosarcoma,in vivo activity
"Cc1c2ccncc2c(C)c2c1[nH]c1ccc(O)cc12 [9-hydroxyellipticine, 9-hydroxy-5,11-dimethyl-(6H) -pyrido [4,3-b] carbazole]",antitumor activity,[1]; mouse L-1210 leukemia,considerably high antitumor properties
Cc1c2cc[n+](C)cc2c(C)c2c1[nH]c1ccc(O)cc12 [elliptinium],in vitro activity,SF126,in vitro activity
same,in vitro activity,SF375,in vitro activity
same,in vitro activity,SF407,in vitro activity
"Cc1c2cc[n+](C)cc2c(C)c2c1[nH]c1ccc(O)cc12 [Celiptium, 2-methyl-9-hydroxyellipticinium acetate]",effect against mammary cancer,mammary cancer,effective against mammary cancer
